{"source": "paper PMC12333940", "about": "“A prometabolite strategy inhibits cardiometabolic disease in an ApoE^–/– murine model of atherosclerosis” (JCI Insight, 2025)", "key": {"[1]": {"test_system": "NF-κB", "assay": "NF-κB-SEAP reporter assay in RAW-Blue cells after LPS", "format": "cell-based", "conditions": "for NFkB OD: then 200 ng/mL LPS 6 h", "experimental": "NF-κB inhibition was assayed using the NF-κB-SEAP reporter cell line, RAW-Blue (InvivoGen, raw-sp). Cells were plated in round-bottom 96-well plates at 100,000 cells per well and cocultured with different concentrations of either NaBut or SerBut (0.15–12 mM) for 24 hours. After the addition of butyrate, cells were rinsed with phosphate buffered saline (PBS) and then stimulated with 200 ng/mL LPS in media for 6 hours."}, "[2]": {"test_system": "ApoE^–/– mice on an HFD", "assay": "Oil Red O staining of aortic root plaque", "format": "in vivo, mouse", "set-up": "ORO Quantification ORO+ Heart: unit not given here", "experimental": "(§1) For 6 weeks, mice were freely administered water, water containing 150 mM SerBut, or water containing an equimolar amount of NaBut. SerBut water was pH adjusted using 10 M NaOH to a final pH of 7.4. […] In concert, mice were fed an HFD with 42% from fat and 0.2% total cholesterol (Envigo, TD-88137) ad libitum. After 6 weeks, mice were euthanized. The lMLNs, ILNs, spleen, heart, and aorta were harvested and processed for flow cytometry analysis ([67]). The liver was harvested and part was homogenized in tissue protein extraction reagent buffer (Invitrogen, 78510) supplemented with protease inhibitor mini tablets (Thermo Fisher Scientific, PIA32955) for Western blotting and qPCR. The remaining liver was fixed with 4% paraformaldehyde and embedded in paraffin for histological analysis.\nHearts were fixed in 4% paraformaldehyde for 24 hours and cryopreserved with sucrose (15% sucrose for 24 hours, 30% sucrose for 24 hours, 1:1 30% sucrose and OCT) before being embedded in OCT (Thermo Fisher Scientific). Frozen embedded samples were sectioned at 8 μm until all 3 leaflets were visible. Aortic root sections were brought to room temperature and rehydrated with PBS. Staining solution was freshly prepared by mixing 3:2 Oil Red O (0.5% in isopropanol, Sigma Aldrich) to water. The solution was filtered through a 0.22 μm PES syringe filter (Millipore) and pipetted onto sections. After 15 minutes in a sealed dark chamber, sections were washed 3 times with water and imaged. Images were analyzed using QuPath (v0.5.0) (https://qupath.github.io). Each leaflet was circled broadly to include the plaque and then subsequently trained on the QuPath pixel classifier using the software’s artificial neural network. Training images were then tested and validated to identify the plaques to calculate their area and exclude non-plaque structures in the image. Plaque sizes were subsequently averaged and used to determine percentage Oil Red O–positive plaque area in the leaflet."}, "[3]": {"test_system": "ApoE^–/– mice on an HFD", "assay": "Immunofluorescent staining of the aortic root (CD68, iNOS, DAPI)", "format": "in vivo, mouse", "set-up": "Immunoflourescence Quantification #Cells/Area / Immunoflourescence Quantification #iNOS+/Area: unit not given beside the values", "source_text": "SerBut water was pH adjusted using 10 M NaOH to a final pH of 7.4. […] After 6 weeks, mice were euthanized. […] The liver was harvested and part was homogenized in tissue protein extraction reagent buffer (Invitrogen, 78510) supplemented with protease inhibitor mini tablets (Thermo Fisher Scientific, PIA32955) for Western blotting and qPCR. […] Aortic root sections were brought to room temperature and rehydrated with PBS and permeabilized with 10% dimethyl sulfoxide (DMSO). […] Sections were washed again in PBS with 0.1% Tween 20 and then PBS and mounted with ProLong Gold Antifade Mountant with DAPI (Invitrogen). Slides were imaged with a DMI8 inverted fluorescence microscope (Leica Microsystems) and analyzed with QuPath (v0.5.0)."}, "[4]": {"test_system": "ApoE^–/– mice on an HFD", "assay": "Flow cytometry of the aorta", "format": "in vivo, mouse", "set-up": "Aorta Flow CD11b+F480+ / Aorta Flow CD11b+Ly6Chi: unit not given here", "source_text": "SerBut water was pH adjusted using 10 M NaOH to a final pH of 7.4. […] After 6 weeks, mice were euthanized. […] The liver was harvested and part was homogenized in tissue protein extraction reagent buffer (Invitrogen, 78510) supplemented with protease inhibitor mini tablets (Thermo Fisher Scientific, PIA32955) for Western blotting and qPCR. […] The heart with the ascending and descending aorta to the diaphragm was harvested. The perivascular adipose tissue was carefully removed by microdissection while keeping the adventitia intact. […] After 45 minutes of digestion at 37°C with orbital shaking, aortas were passed through a 70 μm cell strainer, rinsed, pelleted, and plated into a U-bottom 96-well microplate for staining. […] Cells were washed in PBS supplemented with 2% FBS (FACS buffer) and stained for 30 minutes on ice with surface antibodies at a 1:200 dilution in a 1:1 mixture of FACS buffer and Brilliant Stain Buffer (BD Biosciences). Cells were washed with FACS buffer and PBS and fixed with 2% paraformaldehyde on ice for 20 minutes. Cells were washed twice with PBS and resuspended in FACS buffer. Precision count beads (BioLegend) were used to determine absolute cell counts. In this study, antibodies used included those against CD16/CD32 (BioLegend, clone 93, catalog 101302), CCR2 (PE; […] BD Biosciences, clone HL3, catalog 558079, BD Biosciences), […] (APC; […] BD Biosciences, clone 30-F11, catalog 564225), F4/80 (BUV496; BD Biosciences, clone T45-2342, catalog 750644), […].5; BioLegend, clone M5/114.15.2, catalog 107626), Ly-6C (APC-Cy7; […]"}, "[5]": {"test_system": "ApoE^–/– mice on an HFD", "assay": "qPCR of liver lipid metabolism genes", "format": "in vivo, mouse", "set-up": "srebf1 / srebf2 / fasn / acly / scd1 / acaca / cpt1a: scale not given here", "experimental": "We then asked whether SerBut’s effects on disease pathology and inflammation may be partially mediated by changes in lipid metabolism by measuring lipogenic and lipid oxidation gene expression by qPCR after treatment for 6 weeks (Supplemental Figure 10, F–L).\nas §1"}, "[6]": {"conditions": "aortic root, individual samples"}}, "note": "Values joined by “and” are separate entries in the source; they are usually repeats but may differ in a detail not shown here. Equal entries are not always repeated."}
{"smiles": "CCCC(=O)OC[C@H](N)C(=O)O", "note": "[SerBut, O-butyryl-L-serine]", "values": [{"measurement": "NFkB OD", "setting": "[1]; 1.3 mM 24 h", "value": "0.215 and 0.212 and 0.201 and 0.244 and 0.265 and 0.185"}, {"measurement": "NFkB OD", "setting": "[1]; 4 mM 24 h", "value": "0.151 and 0.171 and 0.176 and 0.19 and 0.152"}, {"measurement": "NFkB OD", "setting": "[1]; 12 mM 24 h", "value": "0.101 and 0.118 and 0.1 and 0.099 and 0.117 and 0.087"}, {"measurement": "LPS-induced NF-κB activation", "setting": "[1]; 12 mM, comparable to 1.3 mM NaBut", "value": "significantly suppressed LPS-induced NF-κB activation"}, {"measurement": "Oil Red O–stained plaque area in the aortic root", "setting": "[2]; 6 weeks, 150 mM in drinking water, HFD, compared with both control and NaBut-treated groups", "value": "significantly less"}, {"measurement": "ORO Quantification ORO+ Heart", "setting": "[2]; individual mice, experiments 1 and 2", "value": "21.0027 and 29.8005 and 22.5256 and 19.8678 and 31.4493 and 14.4105 and 13.3736 and 26.8175 and 18.8593 and 30.307 and 36.2089 and 15.3228 and 16.4207 and 38.8939 and 24.9469 and 30.9724 and 19.1725"}, {"measurement": "total numbers of CD68^+ macrophages in plaque", "setting": "[3]; 6 weeks, compared to NaBut-treated groups", "value": "reduced"}, {"measurement": "Immunoflourescence Quantification #CD68", "setting": "[3]; [6]", "value": "253 and 777 and 160 and 609 and 328 and 484 and 543 and 320 and 469 and 759 and 789 and 546 and 570 and 595 and 155 and 500"}, {"measurement": "Immunoflourescence Quantification #Cells", "setting": "[3]; [6]", "value": "361 and 838 and 219 and 933 and 390 and 980 and 918 and 425 and 532 and 1028 and 894 and 662 and 629 and 763 and 225 and 709"}, {"measurement": "Immunoflourescence Quantification #Cells/Area", "setting": "[3]; [6]", "value": "0.003013 and 0.004253 and 0.004189 and 0.003573 and 0.00395 and 0.004233 and 0.003714 and 0.004358 and 0.004407 and 0.003725 and 0.004412 and 0.003975 and 0.003527 and 0.00449 and 0.003521 and 0.004264"}, {"measurement": "Immunoflourescence Quantification #iNOS+", "setting": "[3]; [6]", "value": "313 and 90 and 377 and 151 and 158 and 199 and 404 and 180 and 226 and 262 and 184 and 96 and 292"}, {"measurement": "Immunoflourescence Quantification #iNOS+/Area", "setting": "[3]; [6]", "value": "0.001588 and 0.001722 and 0.001444 and 0.001529 and 0.00162 and 0.001649 and 0.001464 and 0.0008883 and 0.001357 and 0.001469 and 0.001083 and 0.001502 and 0.001756"}, {"measurement": "Immunoflourescence Quantification CD68+/Area", "setting": "[3]; [6]", "value": "0.002112 and 0.003943 and 0.003061 and 0.002332 and 0.003322 and 0.00209 and 0.002197 and 0.003281 and 0.003885 and 0.00275 and 0.003894 and 0.003278 and 0.003196 and 0.003502 and 0.002425 and 0.003007"}, {"measurement": "Immunoflourescence Quantification CD68+iNOS+", "setting": "[3]; [6]", "value": "308 and 87 and 302 and 146 and 132 and 181 and 347 and 153 and 200 and 252 and 157 and 71 and 253"}, {"measurement": "Immunoflourescence Quantification CD68+iNOS+/Area", "setting": "[3]; [6]", "value": "0.001563 and 0.001664 and 0.001157 and 0.001479 and 0.001354 and 0.001499 and 0.001257 and 0.0007551 and 0.001201 and 0.001413 and 0.000924 and 0.001111 and 0.001521"}, {"measurement": "CD11b^+Ly6C^hi monocytes and CD4^+ T cells in the aorta", "setting": "[4]; 6 weeks, compared to water-treated controls", "value": "significantly reduced"}, {"measurement": "CD45^+ total leukocytes, CD11b^+ monocytes and CCR2^+CD11b^+ monocytes in the aorta", "setting": "[4]; 6 weeks, compared with control groups", "value": "significantly reduced"}, {"measurement": "CD11c^+MHCII^hi dendritic cells, CD11b^+F480^+ macrophages and CD19^+ B cells in the aorta", "setting": "[4]; 6 weeks, compared with water controls", "value": "significantly reduced"}, {"measurement": "Aorta Flow B cell Count", "setting": "[4]; individual mice", "value": "84.4967 and 264.868 and 232.342 and 96.7663 and 273.748 and 383.747 and 234.355 and 234.323 and 206.881"}, {"measurement": "Aorta Flow CD11b+F480+", "setting": "[4]; individual mice", "value": "2.449 and 2.499 and 9.294 and 20.8231 and 9.359 and 5.0163 and 5.067 and 13.3899 and 12.3679"}, {"measurement": "Aorta Flow CD11b+Ly6Chi", "setting": "[4]; individual mice", "value": "17.5571 and 39.2703 and 12.2741 and 5.622 and 12.2459 and 19.99 and 12.7788 and 6.124 and 10.5288"}, {"measurement": "Aorta Flow T Cell Count", "setting": "[4]; individual mice", "value": "194.71 and 307.346 and 249.768 and 304.998 and 251.521 and 313.519 and 377.502 and 212.006 and 174.275"}, {"measurement": "Aorta Flow CD11b+ Count", "setting": "[4]; individual mice, experiment 2", "value": "156.172 and 152.184 and 222.93 and 139.214 and 215.701 and 328.097 and 166.257 and 155.161 and 99.1918"}, {"measurement": "Aorta Flow CD11b+CCR2+", "setting": "[4]; individual mice, experiment 2", "value": "32.4838 and 20.9108 and 28.1725 and 25.737 and 41.3845 and 93.7421 and 32.3588 and 29.2332 and 22.0426"}, {"measurement": "Aorta Flow CD45 Count", "setting": "[4]; individual mice, experiment 2", "value": "1030.73 and 928.206 and 1219.99 and 1078.62 and 1098.57 and 1777.3 and 1018.75 and 756.69 and 848.641"}, {"measurement": "Aorta Flow CD11c+MHCIIhi", "setting": "[4]; individual mice, cell count", "value": "16.2419 and 24.3959 and 22.048 and 17.548 and 21.3193 and 22.8021 and 17.8532 and 22.4871 and 13.4705"}, {"measurement": "liver expression of Acly", "setting": "[5]; 6 weeks, compared with NaBut-treated mice but not water-treated groups", "value": "significantly reduced expression"}, {"measurement": "liver expression of Cpt1a", "setting": "[5]; 6 weeks, compared with water-treated groups, P = 0.06", "value": "strong trend toward reduction"}, {"measurement": "acaca", "setting": "[5]; qPCR, individual mice", "value": "0.188 and 0.284 and 0.192 and 0.406 and 0.341"}, {"measurement": "acly", "setting": "[5]; qPCR, individual mice", "value": "0.526 and 0.622 and 0.832 and 0.324 and 0.471"}, {"measurement": "cpt1a", "setting": "[5]; qPCR, individual mice", "value": "0.348 and 0.381 and 0.409 and 0.745 and 0.465"}, {"measurement": "fasn", "setting": "[5]; qPCR, individual mice", "value": "0.409 and 0.404 and 0.103 and 0.193 and 0.312"}, {"measurement": "scd1", "setting": "[5]; qPCR, individual mice", "value": "1.631 and 1.826 and 1.024 and 0.978 and 0.7"}, {"measurement": "srebf1", "setting": "[5]; qPCR, individual mice", "value": "0.853 and 0.562 and 0.47 and 0.606 and 0.321"}, {"measurement": "srebf2", "setting": "[5]; qPCR, individual mice", "value": "0.511 and 0.812 and 0.428 and 0.961 and 0.372"}]}
